The source of these data is US20230270816A1, “COMBINATION OF ANTINEOPLASTIC ANTIBIOTICS AND BCL-2 INHIBITORS FOR THE TREATMENT OF NPM-1-DRIVEN ACUTE MYELOID LEUKEMIA (AML)” (INSERM (INSTITUTE NATIONAL DE LA SANTÉ ET DE LA RECHERCHE …, priority 2020, published 2023).

Read-outs that look alike come from different tables or passages of the source. Starred links: 1 amine or outer side, 2 acyl side, 3 side chain; linkers in the order of their positions; H or OH if unused. Positions of bridges follow the written chain, without caps; N, C: chain ends. Non-standard residues stand in square brackets, D forms with d. Residues, ends and D or L forms follow the SMILES beside them. Chains are numbered I, II in the order given. Actinocin(9to1) = Cc1c2oc3c(C)ccc(C(=O)[*:1])c3nc-2c(C(=O)[*:2])c(N)c1=O; NMeV = CN[C@H](C(=O)O)C(C)C; Sar = CNCC(=O)O Some results are limits rather than exact numbers.

For data set [1], the system named is AML3 cells. Description: Mitochondrial network and function in AML3 cells. The class given is cell-based. From the text: (§1) Conversely, we used Thenoyl-trifluoroacetone (TTFA) a well-characterized inhibitor of mitochondrial complex II and major inducer of ROS.
The next data set has as its target T1, complex II (Homo sapiens, UniProt P31040).
T1 construct: endogenous in cells; host or cells: NPM1c-expressing cells (not further specified; the same paragraph mentions AML3, AML2-NPM1c and NPM1c-ES cells)
Put plainly: Electron transport chain complex activity. The format is biochemical. To be noted: but not complex I or IV; primarily in NPM1c-expressing cells.

The test system of a further data set is PML NBs. Put plainly: PML nuclear body (NB) reformation ex vivo. To be noted: for effect of ROS scavenger on ActD NB-restoration: AML2-NPM1c cells. The class given is cell-based.
From the text: as §1

The test system of data set [2] is AML3 cells. Put plainly: Senescence markers and clonogenic activity in AML3 cells. The format is cell-based. To be noted: for clonogenic activity: AML3 cells.
From the text: as §1

In data set [3] the test system is primary human NPM1c-AML blasts. Description: Immune-deficient mice xenografted with primary human NPM1c-AML blasts. The format is in vivo. An excerpt:
FIG. 2: ActD enhances Venetoclax anti-leukaemic effects. Response to ActD and/or Venetoclax in a transplantable AML model initiated by NPM1c+IDH1^R132H mutation. A, GFP abundance in bone marrow samples collected at treatment interruption and B, survival curve, n=2. C, abundance of human AML cells in xenografted mice treated for two weeks. Combined therapy induces AML regression.
(§2) We first assessed ActD response in primary cells.
(§3) We therefore explored the ActD/Venetoclax interaction in different NPM1c-driven AML models in vivo. […] Thus, ActD and Venetoclax dramatically synergized to clear AMLs in vivo.
For orientation: A xenograft is tissue or cells of one species grown in another, often human tumour cells in immunodeficient mice.

The next data set relates to murine NPM1c-driven AML. Put plainly: Murine NPM1c-driven AML model. To be noted: mouse, in vivo.
From the text: as §2, §3

Another data set deals with leukemic blasts. Put plainly: AML patient treated with a single ActD course. The class given is in vivo.
In data set [4] the test system is TP53.
Another data set relates to NPM1c-AML. The settings on record: Half of NPM1c-AML patients; single agent; cited from earlier work.
In the next data set the test system is AML2-NPM1c cells. Description: Growth of isogenic AML2-NPM1c / AML2-NPM1 cells. To be noted: AML2-NPM1c vs AML2-NPM1 cells; inhibition of JAK1/2 signalling. The class given is cell-based. An excerpt:
TFAM reduction may reflect transcriptional down-regulation of PGC1A by IFN signalling^16. Importantly, stable NPM1c expression drove PGC1α hyperacetylation resulting in its functional inactivation, possibly through PML NB downregulation (data not shown)^10. These altered mitochondria and release of mtDNA into the cytoplasm activate multiple downstream intracellular stress pathway, particularly IFN and NFKB targets (data not shown), at least in part through cGAS (cyclic GMP-AMP synthase) activation and cGAMP production (data not shown). Other stress pathways, such as oxidative stress or unfolded protein response were also activated (data not shown), resulting in decreased protein synthesis (data not shown). Western blot analyses comparing AML2-NPM1c to AML2-NPM1 cells validated activation of multiple stress pathways by the NPM1c oncogene, including the up-regulation of key TP53-repressed metabolic enzymes (data not shown). As expected, these mitochondrial alterations yielded decreased ATP/ADP+AMP or GTP/GDP+GMP ratios, reflecting metabolic stress (data not shown). Stress responses could directly or indirectly favour leukaemogenesis^20-22. […] These mitochondrial defects may constitute targetable intrinsic weaknesses and, for example, account for the exquisite clinical sensitivity of NPM1c-AMLs to Bcl2 antagonists^23.

For data set [5], the system named is TP53. Put plainly: Doxorubicin mitochondrial rounding and TP53 activation. The class given is cell-based. An excerpt: Targeting mitochondrial function by antibiotics was proposed as a therapeutic option for cancer^35,36 and mitochondrial status modulates chemotherapy response^37,38. Actinomycin D drives mitochondrial alterations prior to detectable activation of the ribosomal or DNA damage checkpoints. Actinomycin D inhibits complex II activity, which may reflect its structural similarity with FAD, one of its electron transporters. This may explain how ActD induces ROS, immediate early response genes, sensitizes cells to apoptosis or initiates immunogenic cell death^39. Complex II is important in hematopoietic progenitors^40, and regulated by PML^41, contributing to ActD therapeutic index in AML blasts. In vivo, ActD triggered features of mitochondria-induced senescence^26. Downstream of acute mitochondrial stress, our experiments reveal a key role of ROS signalling and PML/TP53 senescence (data not shown), drawing an unexpected similarity with acute promyelocytic leukemia, where NBs reformation drive response to arsenic therapy^12,42. In that respect, complex II poisoning has activity in APL models^43. […] Clinically, as both antineoplastic antibiotics (e.g. ActD) and BCL-2 inhibitors (e.g. Venetoclax) have remarkable clinical activity in NPM1c-AMLs, the dramatic synergy outlined here should rapidly be evaluated in patients.

[6] abbreviates: leukemic blasts from peripheral blood.

T1 sequence (P31040 43-664): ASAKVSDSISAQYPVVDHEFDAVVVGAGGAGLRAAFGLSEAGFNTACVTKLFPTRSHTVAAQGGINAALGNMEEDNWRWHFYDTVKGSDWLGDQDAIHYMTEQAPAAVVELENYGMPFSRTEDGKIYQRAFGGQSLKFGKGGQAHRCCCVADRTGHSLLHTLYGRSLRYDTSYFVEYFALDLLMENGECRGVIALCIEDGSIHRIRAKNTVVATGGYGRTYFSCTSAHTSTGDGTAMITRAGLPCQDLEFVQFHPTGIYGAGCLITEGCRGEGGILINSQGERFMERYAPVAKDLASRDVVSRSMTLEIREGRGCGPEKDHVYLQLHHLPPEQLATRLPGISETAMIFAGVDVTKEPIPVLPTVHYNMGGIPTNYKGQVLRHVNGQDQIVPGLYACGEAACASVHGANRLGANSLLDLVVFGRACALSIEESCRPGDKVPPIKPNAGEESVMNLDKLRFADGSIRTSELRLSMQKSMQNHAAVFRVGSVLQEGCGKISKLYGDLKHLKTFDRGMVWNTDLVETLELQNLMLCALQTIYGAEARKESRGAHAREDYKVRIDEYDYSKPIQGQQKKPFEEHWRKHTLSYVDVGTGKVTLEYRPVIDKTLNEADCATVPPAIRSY
T1 sequence (P21912 29-280 partner): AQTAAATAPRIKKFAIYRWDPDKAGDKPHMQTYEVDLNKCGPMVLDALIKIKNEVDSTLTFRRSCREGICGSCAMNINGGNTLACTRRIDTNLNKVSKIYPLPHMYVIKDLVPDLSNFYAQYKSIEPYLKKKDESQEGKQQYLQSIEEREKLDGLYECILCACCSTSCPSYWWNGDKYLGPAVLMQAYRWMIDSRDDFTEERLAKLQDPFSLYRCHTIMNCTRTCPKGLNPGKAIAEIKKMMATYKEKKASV
T1 sequence (Q99643 30-169 partner): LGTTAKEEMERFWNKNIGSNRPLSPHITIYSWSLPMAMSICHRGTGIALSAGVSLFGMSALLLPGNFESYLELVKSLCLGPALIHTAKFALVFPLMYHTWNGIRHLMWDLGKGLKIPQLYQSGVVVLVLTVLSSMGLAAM
T1 sequence (O14521 57-159 partner): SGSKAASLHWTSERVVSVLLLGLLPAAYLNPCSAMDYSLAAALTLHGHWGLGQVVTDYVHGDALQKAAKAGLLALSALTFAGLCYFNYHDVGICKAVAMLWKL

In the case of `Cc1c2oc3c(C)ccc(C(=O)N[C@@H]4C(=O)N[C@H](C(C)C)C(=O)N5CCC[C@H]5C(=O)N(C)CC(=O)N(C)[C@@H](C(C)C)C(=O)O[C@@H]4C)c3nc-2c(C(=O)N[C@@H]2C(=O)N[C@H](C(C)C)C(=O)N3CCC[C@H]3C(=O)N(C)CC(=O)N(C)[C@@H](C(C)C)C(=O)O[C@@H]2C)c(N)c1=O` [ActD, actinomycin D] (I: T[dV]P[Sar][NMeV] / II: T[dV]P[Sar][NMeV]; ester I:1-I:C, II:1-II:C; linker I:N-II:N via Actinocin(9to1)), in the data set with AML3 cells [1] (AML3 and NPM1c-ES cells, as early as 1h), the mitochondrial network result was “fragmented the mitochondrial network”. Besides, at complex II, the “complex II activity” value was “further inhibited the basal low level of complex II”. The “PML NB reformation” value with PML NBs (AML2-NPM1c, AML3 cells or NPM1c-transfected MEFs) is listed as “very rapid NB reformation”. Besides, in the data set on PML NBs (primary NPM1c-AML blasts treated ex vivo), the “PML NB restoration” value is recorded as “PML NB restoration was also observed”. The clonogenic activity entry with AML3 cells [2] is reported as “loss of clonogenic activity”. In addition, the “senescence signs (TP53 activation, p21, Serpine-1, cGAMP, SA-β-Gal)” value with AML3 cells [2] (NPM1c-positive AML3 cells) is given as “multiple signs of senescence”. The leukemic burden result in data set [3] (after 5 days of ActD therapy) is recorded as “dramatically reduced the leukemic burden”. Also, the “stabilization of human TP53 vs mouse Trp53” value in [3] (two xenografted mice) is recorded as “rapidly triggered selective stabilization of human TP53”. The “AML response with leukaemia-selective TP53 activation” value with murine NPM1c-driven AML is “AML regression and blast differentiation”. The blast decrease with leukemic blasts (after a single course of daily ActD injections for 5 days) is given as 10^4 fold. Further, in the data set on leukemic blasts (setting [6]), the “completion of in vivo reformation of PML NBs” value is no more than 12 h and the “start of in vivo reformation of PML NBs” value came to 6 h. In addition, the TP53 activation entry in the data set with TP53 [4] (AML3 cells, ex vivo, 5 nM) is “triggered rapid TP53 activation”. Also, the TP53 stabilization entry with TP53 [4] (normal bone marrow progenitors in vivo or ex vivo, human or mouse primary fibroblasts (WI-38, MEFs) ex vivo, low doses) is “no significant TP53 stabilization”. Besides, in the data set with NPM1c-AML, the clinical response entry is on record as “dramatic responses”.
In the case of `N#CCNC(=O)c1ccc(-c2ccnc(Nc3ccc(N4CCOCC4)cc3)n2)cc1` [CYT387], in the data set on AML2-NPM1c cells, the growth result is “inhibited growth, more potently in AML2-NPM1c than in AML2-NPM1 cells”.
Consider `COc1cccc2c1C(=O)c1c(O)c3c(c(O)c1C2=O)C[C@@](O)(C(=O)CO)C[C@@H]3O[C@H]1C[C@H](N)[C@H](O)[C@H](C)O1` [Doxorubicin], for which, in the data set on TP53 [5], the TP53 activation entry is “PML-dependent, NPM1c-enhanced and NAC-reversible TP53 activation”; the mitochondrial morphology entry is reported as “triggered immediate mitochondrial rounding”.
Regarding `CC(=O)N[C@@H](CS)C(=O)O` [N-acetyl cysteine], the “effect of ROS scavenger on ActD NB-restoration” value in the data set on PML NBs is “completely blocked”.
As to `O=C(CC(=O)C(F)(F)F)c1cccs1` [TTFA, Thenoyl-trifluoroacetone], in the data set on AML3 cells [1] (AML3 cells), the mitochondrial superoxide result is on record as “massively induced mitochondrial superoxide”. For the same molecule, the NB formation result in the data set on PML NBs (NPM1c-transfected stable GFP-PML-III MEFs) is listed as “restored NB formation”. The clonogenic activity result in the data set on AML3 cells [2] is “decreased clonogenic activity”.
As to `N[C@@H](CCC(=O)N[C@@H](CS)C(=O)NCC(=O)O)C(=O)O` [glutathione], the “effect of ROS scavenger on ActD NB-restoration” value in the data set with PML NBs is given as “completely blocked”.
As for venetoclax, the mitochondrial effects result in the data set on AML3 cells [1] (AML3 cells, Venetoclax alone) is “induced mitochondrial fragmentation, reduction of mitochondrial membrane potential, production of ROS and leakage of mtDNA to the cytoplasm”.
